3 molecules from article PMC5336470, “Insights into the mechanism of membrane pyrophosphatases by combining experiment and computer simulation” (Structural Dynamics, 2017) can be followed below.

For the assay, the target named is T1, VrPPase (Vigna radiata, UniProt P21616).
T1 construct: VrPPase reconstituted into liposomes (proteoliposomes); homodimer
T1 sequence (P21616 2-766): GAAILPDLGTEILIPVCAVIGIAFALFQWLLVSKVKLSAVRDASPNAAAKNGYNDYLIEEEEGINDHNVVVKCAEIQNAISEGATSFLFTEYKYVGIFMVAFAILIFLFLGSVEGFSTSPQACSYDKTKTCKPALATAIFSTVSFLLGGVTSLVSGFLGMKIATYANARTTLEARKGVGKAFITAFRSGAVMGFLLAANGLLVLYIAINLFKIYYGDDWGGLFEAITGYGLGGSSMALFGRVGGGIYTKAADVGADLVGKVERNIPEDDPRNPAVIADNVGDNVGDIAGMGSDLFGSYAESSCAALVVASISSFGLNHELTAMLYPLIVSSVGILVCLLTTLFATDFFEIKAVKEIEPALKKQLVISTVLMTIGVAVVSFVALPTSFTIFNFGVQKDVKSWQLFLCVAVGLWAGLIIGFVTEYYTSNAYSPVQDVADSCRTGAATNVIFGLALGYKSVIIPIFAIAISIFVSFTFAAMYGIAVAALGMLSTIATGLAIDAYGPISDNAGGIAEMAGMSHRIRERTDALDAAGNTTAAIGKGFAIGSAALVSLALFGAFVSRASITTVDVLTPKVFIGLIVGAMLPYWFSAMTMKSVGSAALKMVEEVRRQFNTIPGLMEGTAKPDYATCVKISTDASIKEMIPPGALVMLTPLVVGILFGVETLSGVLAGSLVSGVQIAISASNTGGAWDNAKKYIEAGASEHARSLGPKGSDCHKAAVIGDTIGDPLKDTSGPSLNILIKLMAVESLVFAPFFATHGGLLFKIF
Description: SURFE2R N1 electrometric proton-pumping current, proteoliposomes. In kind it is biochemical. Particulars: 200 uM K2HPO4 as control, 10 uM CCCP as protonophore control.

`O=P(O)(O)NP(=O)(O)O` [imidodiphosphate]: the “SURFE2R N1 electrometric proton-pumping current, proteoliposomes” value (50 uM IDP, non-hydrolysable substrate analogue) is recorded as “IDP-bound VrPPase specifically pumps protons”. Consider `O=P(O)(O)CP(=O)(O)O` [methylene diphosphonate], for which the “SURFE2R N1 electrometric proton-pumping current, proteoliposomes” value (50 uM MEDP, non-hydrolysable substrate analogue) is on record as “VrPPase in the presence of another substrate analogue, methylene diphosphonate (MEDP), similarly produces a change”. For `O=P(O)(O)OP(=O)(O)O` [pyrophosphate], under “50 uM K4PPi”, the “SURFE2R N1 electrometric proton-pumping current, proteoliposomes” value was “Addition of CCCP to membrane-embedded VrPPase in the presence of PPi reduces the ion-pumping current”.
